Experimental data taken from US12146004B2, “Polymyxin compounds and uses thereof” (priority 2014, dated 2024).
Values after ≈ are worked out from the molar mass of the structure shown. Read-outs that look alike come from different tables or passages of the source. Bridge positions count the residues as written; N and C are the ends. Square brackets hold non-standard residues; d marks the D form. Peptide text beside a SMILES is read from it. * marks the point of attachment. X16 = Cc1cc(C)cc(CO[C@@H](CCN)C(=O)*)c1; dCha = N[C@H](CC1CCCCC1)C(=O)O; Dab = NCC[C@H](N)C(=O)O; Dap = NC[C@H](N)C(=O)O

How the values were obtained:
Type in all cases: cell-based
Acinetobacter baumannii = tested on: Acinetobacter baumannii
Outline: (§1)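 Each compound was tested against a panel of up to nine strains per Gram-negative species. The panel included strains that show elevated MICs to Polymyxin. Activity was recorded as MIC in μg/mL.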

Pseudomonas aeruginosa = tested on: Pseudomonas aeruginosa
Outline: as §1

Klebsiella pneumoniae = tested on: Klebsiella pneumoniae
Outline: as §1

Escherichia coli = tested on: Escherichia coli
Outline: as §1

HK-2 cells = tested on: HK-2 cells
Source text: Values are reported relative to Polymyxin B.

Row | Compound | MIC A. baumanii 053 (Acinetobacter baumannii) | MIC A. baumanii 056 (Acinetobacter baumannii) | MIC A. baumanii ATCC BAA-747 (Acinetobacter baumannii) | MIC P. aeruginosa 068 (Pseudomonas aeruginosa) | MIC P. aeruginosa 070 (Pseudomonas aeruginosa) | MIC P. aeruginosa ATCC 27853 (Pseudomonas aeruginosa) | MIC K. pneumoniae 063 (Klebsiella pneumoniae) | MIC K. pneumoniae 065 (Klebsiella pneumoniae) | MIC K. pneumoniae ATCC 4352 (Klebsiella pneumoniae) | MIC E. coli 058 (Escherichia coli) | MIC E. coli 061 (Escherichia coli) | MIC E. coli ATCC 25922 (Escherichia coli) | HK-2 IC50 (HK-2 cells) | MIC A. baumanii NCTC 13424 (Acinetobacter baumannii) | MIC P. aeruginosa CCUG 59347 (Pseudomonas aeruginosa) | MIC K. pneumoniae ATCC 13882 (Klebsiella pneumoniae) | MIC E. coli NCTC 9001 (Escherichia coli) | other results
1 | 2-(2- Aminoethyl) octanoyl L- Thr-L-Dap- polymyxin heptapeptide [Example C6, reference compound] | – | – | – | – | – | – | – | – | – | – | – | – | – | – | – | – | – | MIC A. baumanii 053 (Acinetobacter baumannii; strain 053): 32 µg/mL; MIC A. baumanii 056 (Acinetobacter baumannii; strain 056): 32 µg/mL; MIC A. baumanii ATCC BAA-747 (Acinetobacter baumannii; strain ATCC BAA-747): 0.06 µg/mL; MIC A. baumanii NCTC 13424 (Acinetobacter baumannii; strain NCTC 13424): 0.03 µg/mL; MIC P. aeruginosa 068 (Pseudomonas aeruginosa; strain 068): 2 µg/mL; MIC P. aeruginosa 070 (Pseudomonas aeruginosa; strain 070): 8 µg/mL; MIC P. aeruginosa ATCC 27853 (Pseudomonas aeruginosa; strain ATCC 27853): 0.125 µg/mL; MIC P. aeruginosa CCUG 59347 (Pseudomonas aeruginosa; strain CCUG 59347): 0.125 µg/mL; MIC K. pneumoniae 063 (Klebsiella pneumoniae; strain 063): 8 µg/mL; MIC K. pneumoniae 065 (Klebsiella pneumoniae; strain 065): 0.25 µg/mL; MIC K. pneumoniae ATCC 4352 (Klebsiella pneumoniae; strain ATCC 4352): 0.06 µg/mL; MIC K. pneumoniae ATCC 13882 (Klebsiella pneumoniae; strain ATCC 13882): 0.125 µg/mL; MIC E. coli 058 (Escherichia coli; strain 058): 1 µg/mL; MIC E. coli 061 (Escherichia coli; strain 061): 8 µg/mL; MIC E. coli ATCC 25922 (Escherichia coli; strain ATCC 25922): 0.125 µg/mL; MIC E. coli NCTC 9001 (Escherichia coli; strain NCTC 9001): 0.06 µg/mL; HK-2 IC50 (HK-2 cells; HK-2 cells): 51 µg/mL
2 | CC(C)CC1CNCC(C(=O)N[C@H](C(=O)N[C@@H](CN)C(=O)N[C@H]2CCNC(=O)[C@H]([C@@H](C)O)NC(=O)[C@H](CCN)NC(=O)[C@H](CCN)NC(=O)[C@H](CC(C)C)NC(=O)[C@@H](Cc3ccc(-c4ccccc4)cc3)NC(=O)[C@H](CCN)NC2=O)C(C)O)C1 (single isomer, unassigned; isomer 1) [Example 3, (trans-5-(isobutyl-piperidine)-3-carbonyl L-Thr-L-Dap-polymyxin [D-(4-phenyl)Phe]-6] heptapeptide. Isomer 1] | 64 µg/mL (≈ 53.7 µM) | 4 µg/mL (≈ 3.35 µM) | 2 µg/mL (≈ 1.68 µM) | 4 µg/mL (≈ 3.35 µM) | 4 µg/mL (≈ 3.35 µM) | 1 µg/mL (≈ 0.839 µM) | >64 µg/mL | 32 µg/mL (≈ 26.8 µM) | 0.5 µg/mL (≈ 0.419 µM) | 8 µg/mL (≈ 6.71 µM) | 32 µg/mL (≈ 26.8 µM) | 0.5 µg/mL (≈ 0.419 µM) | 34 µg/mL | – | – | – | – | MIC K. pneumoniae 062 (Klebsiella pneumoniae): >64 µg/mL; MIC K. pneumoniae 064 (Klebsiella pneumoniae): 32 µg/mL (≈ 26.8 µM); MIC K. pneumoniae 067 (Klebsiella pneumoniae): >64 µg/mL; MIC E. coli 059 (Escherichia coli): 8 µg/mL (≈ 6.71 µM); MIC E. coli 060 (Escherichia coli): 16 µg/mL (≈ 13.4 µM)
3 | CC(C)CC(CN)C(=O)N[C@H](C(=O)N[C@@H](CN)C(=O)N[C@H]1CCNC(=O)[C@H]([C@@H](C)O)NC(=O)[C@H](CCN)NC(=O)[C@H](CCN)NC(=O)[C@H](CC(C)C)NC(=O)[C@@H](Cc2ccc(-c3ccc(C(F)(F)F)cc3)cc2)NC(=O)[C@H](CCN)NC1=O)C(C)O (single isomer, unassigned; isomer 1) [Example 20, 2-Aminomethyl-4-methyl pentanoyl polymyxin L-Thr-L-Dap-polymyxin [D-{4-(4-trifluoromethyl)phenyl} Phe]-6]heptapeptide. Isomer 1] | – | – | 0.5 µg/mL (≈ 0.41 µM) | – | – | 1 µg/mL (≈ 0.819 µM) | – | 1 µg/mL (≈ 0.819 µM) | 0.5 µg/mL (≈ 0.41 µM) | 4 µg/mL (≈ 3.28 µM) | – | 1 µg/mL (≈ 0.819 µM) | 10 µg/mL | – | – | – | – | –
4 | CC(C)C[C@@H]1NC(=O)[C@@H](CC2CCCCC2)NC(=O)[C@H](CCN)NC(=O)[C@@H](NC(=O)[C@H](CN)NC(=O)[C@@H](NC(=O)CC(N)C2CCCCC2)C(C)O)CCNC(=O)[C@H]([C@@H](C)O)NC(=O)[C@H](CCN)NC(=O)[C@H](CCN)NC1=O (single isomer, unassigned; isomer 1) [Example 32, 3-amino-3-cyclohexylpropanoyl L-Thr-L-Dap-polymyxin [D-cyclohexylalanine]-6 heptapeptide. Isomer 1] | – | 64 µg/mL (≈ 57.7 µM) | 0.25 µg/mL (≈ 0.226 µM) | 4 µg/mL (≈ 3.61 µM) | 4 µg/mL (≈ 3.61 µM) | 0.5 µg/mL (≈ 0.451 µM) | 16 µg/mL (≈ 14.4 µM) | – | 0.06 µg/mL (≈ 0.0541 µM) | 2 µg/mL (≈ 1.8 µM) | 16 µg/mL (≈ 14.4 µM) | 0.25 µg/mL (≈ 0.226 µM) | 73 µg/mL | 0.06 µg/mL (≈ 0.0541 µM) | 0.5 µg/mL (≈ 0.451 µM) | 0.25 µg/mL (≈ 0.226 µM) | 0.125 µg/mL (≈ 0.113 µM) | –
5 | Cc1cc(C)cc(CO[C@@H](CCN)C(=O)N[C@H](C(=O)N[C@@H](CN)C(=O)N[C@H]2CCNC(=O)[C@H]([C@@H](C)O)NC(=O)[C@H](CCN)NC(=O)[C@H](CCN)NC(=O)[C@H](CC(C)C)NC(=O)[C@@H](CC3CCCCC3)NC(=O)[C@H](CCN)NC2=O)[C@@H](C)O)c1 [Example 90, (S)-4-amino-2-((3,5-dimethylbenzyl)oxy)butanoyl L-Thr-L-Dap-polymyxin [D-cyclohexylalanine-6]heptapeptide] (X16-T[Dap][Dab][Dab][dCha]L[Dab][Dab]T; lactam 3-C) | >64 µg/mL | 32 µg/mL (≈ 27.2 µM) | 0.125 µg/mL (≈ 0.106 µM) | 4 µg/mL (≈ 3.41 µM) | 16 µg/mL (≈ 13.6 µM) | 0.125 µg/mL (≈ 0.106 µM) | 64 µg/mL (≈ 54.5 µM) | 4 µg/mL (≈ 3.41 µM) | – | 2 µg/mL (≈ 1.7 µM) | 16 µg/mL (≈ 13.6 µM) | 0.125 µg/mL (≈ 0.106 µM) | – | 0.06 µg/mL (≈ 0.0511 µM) | 0.25 µg/mL (≈ 0.213 µM) | 0.25 µg/mL (≈ 0.213 µM) | 0.125 µg/mL (≈ 0.106 µM) | –
